This passage reports EC50 and CC50 results from US20220033396A1, “FURTHER HETEROAROMATIC COMPOUNDS HAVING ACTIVITY AGAINST RSV” (priority 2018, published 2022).

One data set relates to rgRSV224 virus. The data set can be described thus: microbe, parasite or virus in culture. It is filed as cell-based. To be noted: human respiratory syncytial virus, 72 h; rgRSV224 virus (MOI=1), HeLa cells, GFP expression three days post-virus exposure; averaged data of several repeat experiments; read-out: RSV HELA EC50.
A short description of the next data set: in vitro. As to conditions: human.

Bounds are passed on as bounds.

As to `C[C@@H]1c2ccccc2CCN1C(=O)c1cc(C2CC2)c2nc(-c3ccc(N4CC(O)C4)cc3F)cn2c1` [Compound 27, 1-(4-{8-Cyclopropyl-6-[(1R)-1-methyl-1,2,3,4-tetrahydroisoquinoline-2-carbonyl]imidazo[1,2-a]pyridin-2-yl}-3-fluorophenyl)azetidin-3-ol], in the data set on rgRSV224 virus, the EC50 is 0.119 µM. Also, the CC50 at 3 days in “in vitro” was determined as 98.1 µM.

In the case of `C[C@@H]1c2ccccc2CCN1C(=O)c1cc(C2CC2)c2nc(-c3ccc(N4CC(C(=O)NS(C)(=O)=O)C4)cc3F)cn2c1` [Compound 28, 1-(4-{8-Cyclopropyl-6-[(1R)-1-methyl-1,2,3,4-tetrahydroisoquinoline-2-carbonyl]imidazo[1,2-a]pyridin-2-yl}-3-fluorophenyl)-N-methanesulfonylazetidine-3-carboxamide], in the data set on rgRSV224 virus, the concentration for a half-maximal effect (EC50) was 3.11 µM. In “in vitro”, this compound gave a CC50 at 3 days of over 100 µM.

As to `C[C@@H]1c2ccccc2CCN1C(=O)c1cc(C2CC2)c2nc(-c3ccc4c(c3F)C=C(C(=O)O)CO4)cn2c1` [Compound 29, (R)-6-(8-cyclopropyl-6-(1-methyl-1,2,3,4-tetrahydroisoquinoline-2-carbonyl)imidazo[1,2-a]pyridin-2-yl)-5-fluoro-2H-chromene-3-carboxylic Acid], in the data set on rgRSV224 virus, the concentration giving a half-maximal response (EC50) is 0.146 µM. This compound also yielded a CC50 at 3 days in “in vitro” of 49.5 µM.

With `C[C@@H]1c2ccccc2CCN1C(=O)c1cc(C2CC2)c2nc(-c3ccc(NC(=O)N4CC(O)C4)cc3F)cn2c1` [Compound 30, (R)-N-(4-(8-cyclopropyl-6-(1-methyl-1,2,3,4-tetrahydroisoquinoline-2-carbonyl)imidazo[1,2-a]pyridin-2-yl)-3-fluorophenyl)-3-hydroxyazetidine-1-carboxamide], the EC50 with rgRSV224 virus worked out at 0.089 µM. For the same compound, the CC50 at 3 days in the data set “in vitro” turned out to be 43.4 µM.

With `C[C@@H]1c2ccccc2CCN1C(=O)c1cc(C2CC2)c2nc(-c3ccc(/C=C/C(=O)O)cc3F)cn2c1` [Compound 31, (R),(E)-3-(4-(8-cyclopropyl-6-(1-methyl-1,2,3,4-tetrahydroisoquinoline-2-carbonyl)imidazo[1,2-a]pyridin-2-yl)-3-fluorophenyl)acrylic acid], in the data set on rgRSV224 virus, the EC50 was found to be 0.158 µM. Besides, in the data set “in vitro”, the CC50 at 3 days is 49.9 µM.

For the compound `C[C@@H]1c2ccccc2CCN1C(=O)c1cc(C2CC2)c2nc(-c3ccc([C@H]4C[C@@H]4C(=O)O)cc3F)cn2n1` [Compound 32, (1S,2 S)-2-(4-{8-Cyclopropyl-6-[(1R)-1-methyl-1,2,3,4-tetrahydroisoquinoline-2-carbonyl]imidazo[1,2-b]pyridazin-2-yl}-3-fluorophenyl)cyclopropane-1-carboxylic Acid], the EC50 in the data set on rgRSV224 virus is 0.01 µM. Also, the CC50 at 3 days in “in vitro” amounted to 51.5 µM.

As to `C[C@@H]1CCCCCN1C(=O)c1cc(C2CC2)c2nc(-c3ccc([C@H]4C[C@@H]4C(=O)O)cc3F)cn2n1` [Compound 33, (1S,2S)-2-(4-{8-Cyclopropyl-6-[(2R)-2-methylazepane-1-carbonyl]imidazo[1,2-b]pyridazin-2-yl}-3-fluorophenyl)cyclopropane-1-carboxylic Acid], the EC50 in the data set on rgRSV224 virus came out at 0.067 µM. Besides, the CC50 at 3 days in the data set “in vitro” amounted to 50.5 µM.

`CCc1cc(C(=O)N2CCc3ccccc3[C@H]2C)nn2cc(-c3ccc(N4C[C@H](O)[C@@H](O)C4)cc3F)nc12` [Compound 34, (2-(4-((3 S,4 S)-3,4-dihydroxypyrrolidin-1-yl)-2-fluorophenyl)-8-ethylimidazo[1,2-b]pyridazin-6-yl)((R)-1-methyl-3,4-dihydroisoquinolin-2(1H)-yl)methanone]: in the data set with rgRSV224 virus, the EC50 is 0.012 µM. The CC50 at 3 days in “in vitro” is 24.5 µM.

`CCc1cc(C(=O)N2CCc3ccccc3[C@H]2C)nn2cc(-c3ccc(N4CC(O)C4)cc3F)nc12` [Compound 35, (R)-(8-ethyl-2-(2-fluoro-4-(3-hydroxyazetidin-1-yl)phenyl)imidazo[1,2-b]pyridazin-6-yl)(1-methyl-3,4-dihydroisoquinolin-2(1H)-yl)methanone]: in the data set with rgRSV224 virus, the 50% effective concentration (EC50) worked out at 0.021 µM. The compound further displayed a CC50 at 3 days in the data set “in vitro” of 16.3 µM.

With `CCc1cc(C(=O)N2CCc3ccccc3[C@H]2C)nn2cc(-c3ccc(/C=C/C(=O)O)cc3F)nc12` [Compound 36, (R,E)-3-(4-(8-ethyl-6-(1-methyl-1,2,3,4-tetrahydroisoquinoline-2-carbonyl)imidazo[1,2-b]pyridazin-2-yl)-3-fluorophenyl)acrylic Acid], the half-maximal effective concentration (EC50) in the data set with rgRSV224 virus came to 0.039 µM. In addition, in “in vitro”, the CC50 at 3 days came to 17.2 µM.

Take `CCc1cc(C(=O)N(CC)C(C)C(C)C)nn2cc(-c3ccc(NC(=O)N4CC[C@@H](O)C4)cc3F)nc12` (stereo partly drawn) [Compound 42, N,8-diethyl-2-(2-fluoro-4-((R)-3-hydroxypyrrolidine-1-carboxamido)phenyl)-N-(3-methylbutan-2-yl)imidazo[1,2-b]pyridazine-6-carboxamide]: the EC50 with rgRSV224 virus was 5.55 µM. Besides, the CC50 at 3 days in “in vitro” is 46.8 µM.

For `C[C@@H]1c2ccccc2CCN1C(=O)c1cc(-c2cccc(F)c2)c2nc(-c3ccc(NC(=O)N4CC[C@@H](O)C4)cc3F)cn2n1` [Compound 43, (R)-N-(3-fluoro-4-(8-(3-fluorophenyl)-6-((R)-1-methyl-1,2,3,4-tetrahydroisoquinoline-2-carbonyl)imidazo[1,2-b]pyridazin-2-yl)phenyl)-3-hydroxypyrrolidine-1-carboxamide], the concentration for a half-maximal effect (EC50) in the data set on rgRSV224 virus was 0.022 µM. Moreover, the CC50 at 3 days in “in vitro” is over 100 µM.

As for `CCc1cc(C(=O)N2CCc3ccccc3[C@H]2C)nn2cc(-c3ccc4c(c3F)C=C(C(N)=O)CO4)nc12` [Compound 45, (R)-6-(8-ethyl-6-(1-methyl-1,2,3,4-tetrahydroisoquinoline-2-carbonyl)imidazo[1,2-b]pyridazin-2-yl)-5-fluoro-2H-chromene-3-carboxamide], the half-maximal effective concentration (EC50) in the data set on rgRSV224 virus came out at 0.105 µM. Further, in “in vitro”, the CC50 at 3 days was over 100 µM.

On to `CCc1cc(C(=O)N2CCc3ccccc3[C@H]2C)nn2cc(-c3ccc4c(c3F)OCC(C(N)=O)=C4)nc12` [Compound 46, (R)-7-(8-ethyl-6-(1-methyl-1,2,3,4-tetrahydroisoquinoline-2-carbonyl)imidazo[1,2-b]pyridazin-2-yl)-8-fluoro-2H-chromene-3-carboxamide], for which the EC50 in the data set with rgRSV224 virus was 0.054 µM. The compound also returned a CC50 at 3 days in “in vitro” of over 100 µM.

As for `C[C@@H]1c2ccccc2CCN1C(=O)c1cn2cc(-c3ccc(NC(=O)N4CC[C@@H](O)C4)cc3F)nc2c(C2CC2)n1` [Compound 47, (R)-N-(4-(8-cyclopropyl-6-((R)-1-methyl-1,2,3,4-tetrahydroisoquinoline-2-carbonyl)imidazo[1,2-a]pyrazin-2-yl)-3-fluorophenyl)-3-hydroxypyrrolidine-1-carboxamide], the EC50 with rgRSV224 virus was found to be 2.77 µM. Besides, in “in vitro”, the CC50 at 3 days is over 100 µM.

`C[C@@H]1c2ccccc2CCN1C(=O)c1cn2cc(-c3ccc(N4C[C@H](O)[C@@H](O)C4)cc3F)nc2c(C2CC2)n1` [Compound 48, (8-cyclopropyl-2-(4-((3 S,4 S)-3,4-dihydroxypyrrolidin-1-yl)-2-fluorophenyl)imidazo[1,2-a]pyrazin-6-yl)((R)-1-methyl-3,4-dihydroisoquinolin-2(1H)-yl)methanone]: the concentration giving a half-maximal response (EC50) in the data set on rgRSV224 virus was found to be 3.77 µM. The CC50 at 3 days in the data set “in vitro” is 58.8 µM.

Take `C[C@@H]1c2ccccc2CCN1C(=O)c1cc(C2CC2)c2cc(-c3ccc(NC(=O)N4CC[C@@H](O)C4)cc3F)cn2n1` [Compound 49, (R)-N-(4-(4-cyclopropyl-2-((R)-1-methyl-1,2,3,4-tetrahydroisoquinoline-2-carbonyl)pyrrolo[1,2-b]pyridazin-6-yl)-3-fluorophenyl)-3-hydroxypyrrolidine-1-carboxamide]: the EC50 with rgRSV224 virus worked out at 0.048 µM. In the data set “in vitro”, this compound registered a CC50 at 3 days of 45.5 µM.

With `C[C@@H]1c2ccccc2CCN1C(=O)c1cc(C2CC2)c2nc(-c3ccc(N4C[C@H](O)[C@@H](O)C4)cc3F)cn2n1` [Compound 51, (8-cyclopropyl-2-(4-((3 S,4 S)-3,4-dihydroxypyrrolidin-1-yl)-2-fluorophenyl)imidazo[1,2-b]pyridazin-6-yl)((R)-1-methyl-3,4-dihydroisoquinolin-2(1H)-yl)methanone], in the data set on rgRSV224 virus, the concentration giving a half-maximal response (EC50) is 0.013 µM. For the same compound, the CC50 at 3 days in the data set “in vitro” worked out at 38 µM.
